Measured values as given in PubChem BioAssay AID2060906 (Molecular Pharmacology Branch, DTP, NCI, 2025).
pIC50: −log10 of the molar value.

System: 485176-168-R4-J1-PDC complex spheroid growth
Experiment: Anticancer human tumor 485176-168-R4-J1-PDC patient-derived pancreatic adenocarcinoma cell line growth inhibition [RAS]
Conditions: for pIC50: curve of first compound; for viability, T/C: stronger effect = lower value
Source text: RAS pathway inhibitors in Combinations in Complex Spheroids
A high-throughput screen of multi-cell type tumor spheroids was designed to identify active combinations of RAS pathway inhibitors and targeted small molecules. Complex spheroids include a stromal component modeled by human endothelial cells (HUVEC) and fibroblasts modeled by human mesenchymal stem cells (MSCs). The concentration ranges selected for each drug and investigational agent were based upon clinically achievable concentrations if the clinical Cmax of the agent was known.
Compounds. The drugs and investigational agents: abemaciclib (NSC768073), cobimetinib (NSC768068), divarasib (GDC6063, NSC841802), docetaxel (NSC628503), GDC-1971 (RLY-1971, NSC841576), gemcitabine (NSC613327), inavolisib (NSC800729), ipatasertib (NSC767898), KB-0742 (NSC834161), MRTX-1133 (NSC836407), osimertinib (NSC779217), RMC-4630 (NSC839698), RMC-6236 (NSC851965), RMC-6291 (NSC852671), Ro-3306 (NSC812927), sapanisertib (NSC764658), SN-38 (NSC673596), staurosporine (NSC755774), SY5609 (NSC837396), and tovorafenib (DAY101, NSC766906), were obtained from the National Cancer Institute (NCI) Developmental Therapeutics Program Chemical Repository. The FDA-approved anticancer drug set is available from the NCI Developmental Therapeutics Program. […] The stock solutions were prepared in dimethyl sulfoxide (DMSO, Sigma-Aldrich, St. Louis, MO, cat. D2650) at 800-fold the tested concentration and stored at -70 degrees C prior to their use. All drugs and investigational agents were tested over a range starting from a high concentration at or near the clinical Cmax and decreasing in half-log increments. If the clinical Cmax for an agent had not been determined, the highest concentration tested was 10 microM.
Cell Culture. All cells were maintained in an incubator at 37 degrees C and 5% CO2 with 95% humidity. The PDC lines were cultured according to standard operating procedures established by the NCI PDMR. All PDCs were thawed and cultured in Matrigel-coated flasks prepared with a working solution of 1X Ham's F-12 nutrient mix, without supplementation (Invitrogen, Waltham, MA, cat. 11765054), 100 U/mL penicillin-streptomycin (Invitrogen, cat. 15140122), and 2.5% Matrigel (Corning Inc., Corning, NY, cat. 354248) for the first three passages. The 362531-283-R-J2-PDC and 782815-120-R-J1-PDC lines were cultured in 6C/Colon 1B media, which includes advanced DMEM/F-12 (Thermo Fisher Scientific, cat. 12634028), 10 mM HEPES (Thermo Fisher Scientific, cat. 15630080), 1X GlutaMAX supplement (Thermo Fisher Scientific, cat. 35050061), 0.1 mg/mL primocin (InvivoGen, San Diego, CA, cat. ant-pm-2), 10% defined fetal bovine serum, heat inactivated (HyClone Laboratories Inc., Logan, UT, cat. SH30070.03HI), 50% L-WRN conditioned media (ATCC, cat. CRL-3276), 1.25 mM N-Acetyl-L-cysteine (Sigma-Aldrich, cat. A9165), 10 mM nicotinamide (Sigma-Aldrich, cat. N0636), 1X B-27 supplement (Thermo Fisher Scientific, cat. 17504044), 1X N-2 supplement (Thermo Fisher Scientific, cat. 17502048), 50 ng/mL human EGF (Thermo Fisher Scientific, cat. PHG0311), and 10 microM Y-27632 dihydrochloride (Tocris Bioscience, cat. 1254). The K12877-001-R-J1-PDC line was cultured in 6I media, which includes all 6C/Colon 1B media plus 10 ng/mL human FGF-10 (PeproTech, cat. 100-26), 1 ng/mL human FGF-2 (PeproTech, cat. 100-18B), 1 µM prostaglandin E2 (Tocris Bioscience, cat. 2296), […] hydrocortisone (Sigma-Aldrich, cat. H4001), and […] bovine insulin (Sigma-Aldrich, cat. I6634). The K86415-001-R-J1-PDC line was cultured in 6D media, which includes all 6C/Colon 1B media components minus the L-WRN conditioned media. The 485176-168-R4-J1-PDC was cultured in PANC media, which includes all 6C/Colon 1B media plus 100 ng/mL human FGF-10 (PeproTech, cat. 100-26), 500 nM SB-431542 (Selleckchem, cat. S1067), and 10 nM gastrin (Tocris Bioscience, cat. 3006). […]
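Note: spheroids exposed to compounds for seven days before readout.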
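Throughout, for viability, T/C: luminescence viability expressed relative to DMSO vehicle wells set as 100%.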

SMILES: CC1(O)CCCC1n1c(=O)c(C(F)F)cc2cnc(NC3CCN(S(C)(=O)=O)CC3)nc21 (centres undefined) + CCn1c(-c2cccnc2C(C)OC)c2c3cc(ccc31)N1CCOC(CC(NC(=O)C(C(C)C)N(C)C(=O)C3(F)CCN(C(=O)C#CC(C)(C)N(C)C)CC3)C(=O)N3CCCC(N3)C(=O)OCC(C)(C)C2)C1
- pIC50 (second compound 0.000949 µM): 5.47
- pIC50 (second compound 0.003 µM): 5.50
- pIC50 (second compound 0.00949 µM): 5.47
- pIC50 (second compound 0.03 µM): 5.48
- pIC50 (second compound 0.0949 µM): 5.48
- pIC50 (second compound 0.3 µM): 5.77
- viability, T/C (second compound 0.000949 µM, first compound 0.0316 µM): 114%
- viability, T/C (second compound 0.000949 µM, first compound 0.1 µM): 75%
- viability, T/C (second compound 0.000949 µM, first compound 0.316 µM): 70.6%
- viability, T/C (second compound 0.000949 µM, first compound 1 µM): 78.2%
- viability, T/C (second compound 0.000949 µM, first compound 3.16 µM): 60.8%
- viability, T/C (second compound 0.000949 µM, first compound 10 µM): 4.58%
- viability, T/C (second compound 0.003 µM, first compound 0.0316 µM): 103%
- viability, T/C (second compound 0.003 µM, first compound 0.1 µM): 92.7%
- viability, T/C (second compound 0.003 µM, first compound 0.316 µM): 76.6%
- viability, T/C (second compound 0.003 µM, first compound 1 µM): 72.8%
- viability, T/C (second compound 0.003 µM, first compound 3.16 µM): 57%
- viability, T/C (second compound 0.003 µM, first compound 10 µM): 3.48%
- viability, T/C (second compound 0.00949 µM, first compound 0.0316 µM): 90.4%
- viability, T/C (second compound 0.00949 µM, first compound 0.1 µM): 74.7%
- viability, T/C (second compound 0.00949 µM, first compound 0.316 µM): 60.6%
- viability, T/C (second compound 0.00949 µM, first compound 1 µM): 69.8%
- viability, T/C (second compound 0.00949 µM, first compound 3.16 µM): 57%
- viability, T/C (second compound 0.00949 µM, first compound 10 µM): 3.15%
- viability, T/C (second compound 0.03 µM, first compound 0.0316 µM): 110%
- viability, T/C (second compound 0.03 µM, first compound 0.1 µM): 78.7%
- viability, T/C (second compound 0.03 µM, first compound 0.316 µM): 87.2%
- viability, T/C (second compound 0.03 µM, first compound 1 µM): 65.9%
- viability, T/C (second compound 0.03 µM, first compound 3.16 µM): 63.5%
- viability, T/C (second compound 0.03 µM, first compound 10 µM): 2.51%
- viability, T/C (second compound 0.0949 µM, first compound 0.0316 µM): 89.2%
- viability, T/C (second compound 0.0949 µM, first compound 0.1 µM): 76.2%
- viability, T/C (second compound 0.0949 µM, first compound 0.316 µM): 69.6%
- viability, T/C (second compound 0.0949 µM, first compound 1 µM): 68.1%
- viability, T/C (second compound 0.0949 µM, first compound 3.16 µM): 56.1%
- viability, T/C (second compound 0.0949 µM, first compound 10 µM): 2.02%
- viability, T/C (second compound 0.3 µM, first compound 0.0316 µM): 78.7%
- viability, T/C (second compound 0.3 µM, first compound 0.1 µM): 70.5%
- viability, T/C (second compound 0.3 µM, first compound 0.316 µM): 58.1%
- viability, T/C (second compound 0.3 µM, first compound 1 µM): 54.6%
- viability, T/C (second compound 0.3 µM, first compound 3.16 µM): 47.8%
- viability, T/C (second compound 0.3 µM, first compound 10 µM): 3.3%

SMILES: CC1(O)CCCC1n1c(=O)c(C(F)F)cc2cnc(NC3CCN(S(C)(=O)=O)CC3)nc21 (centres undefined) + C#Cc1c(F)ccc2cc(O)cc(-c3ncc4c(N5CC6CCC(C5)N6)nc(OCC56CCCN5CC(F)C6)nc4c3F)c12
- pIC50 (second compound 0.0316 µM): 5.60
- pIC50 (second compound 0.1 µM): 5.53
- pIC50 (second compound 0.316 µM): 5.44
- pIC50 (second compound 1 µM): 5.68
- pIC50 (second compound 3.16 µM): 5.66
- pIC50 (second compound 10 µM): 5.54
- viability, T/C (second compound 0.0316 µM, first compound 0.0316 µM): 95%
- viability, T/C (second compound 0.0316 µM, first compound 0.1 µM): 66.2%
- viability, T/C (second compound 0.0316 µM, first compound 0.316 µM): 60.5%
- viability, T/C (second compound 0.0316 µM, first compound 1 µM): 79.6%
- viability, T/C (second compound 0.0316 µM, first compound 3.16 µM): 44.1%
- viability, T/C (second compound 0.0316 µM, first compound 10 µM): 2.88%
- viability, T/C (second compound 0.1 µM, first compound 0.0316 µM): 78.7%
- viability, T/C (second compound 0.1 µM, first compound 0.1 µM): 76.5%
- viability, T/C (second compound 0.1 µM, first compound 0.316 µM): 68.7%
- viability, T/C (second compound 0.1 µM, first compound 1 µM): 61.2%
- viability, T/C (second compound 0.1 µM, first compound 3.16 µM): 53.6%
- viability, T/C (second compound 0.1 µM, first compound 10 µM): 2.44%
- viability, T/C (second compound 0.316 µM, first compound 0.0316 µM): 89.9%
- viability, T/C (second compound 0.316 µM, first compound 0.1 µM): 72.2%
- viability, T/C (second compound 0.316 µM, first compound 0.316 µM): 68.3%
- viability, T/C (second compound 0.316 µM, first compound 1 µM): 66.9%
- viability, T/C (second compound 0.316 µM, first compound 3.16 µM): 60.4%
- viability, T/C (second compound 0.316 µM, first compound 10 µM): 3.62%
- viability, T/C (second compound 1 µM, first compound 0.0316 µM): 91.5%
- viability, T/C (second compound 1 µM, first compound 0.1 µM): 81.4%
- viability, T/C (second compound 1 µM, first compound 0.316 µM): 66.8%
- viability, T/C (second compound 1 µM, first compound 1 µM): 64.7%
- viability, T/C (second compound 1 µM, first compound 3.16 µM): 47.2%
- viability, T/C (second compound 1 µM, first compound 10 µM): 1.8%
- viability, T/C (second compound 3.16 µM, first compound 0.0316 µM): 104%
- viability, T/C (second compound 3.16 µM, first compound 0.1 µM): 84.9%
- viability, T/C (second compound 3.16 µM, first compound 0.316 µM): 66.2%
- viability, T/C (second compound 3.16 µM, first compound 1 µM): 62.2%
- viability, T/C (second compound 3.16 µM, first compound 3.16 µM): 58%
- viability, T/C (second compound 3.16 µM, first compound 10 µM): 2.91%
- viability, T/C (second compound 10 µM, first compound 0.0316 µM): 89.1%
- viability, T/C (second compound 10 µM, first compound 0.1 µM): 70.8%
- viability, T/C (second compound 10 µM, first compound 0.316 µM): 82.7%
- viability, T/C (second compound 10 µM, first compound 1 µM): 57.1%
- viability, T/C (second compound 10 µM, first compound 3.16 µM): 55.9%
- viability, T/C (second compound 10 µM, first compound 10 µM): 2.88%
